Read-outs that look alike come from different tables or passages of the source.
What was measured:
Factor XIa = Factor XIa (Homo sapiens (Human), UniProt P03951); assay: Factor XIa inhibition assay (FLINT) utilizing a fluorophore-quencher pair peptide substrate; type: biochemical; conditions: 30 min preincubation, read-out: FXIa Kin Inh IC50
Outline: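 FXIa ([…]) preincubated 30 min with compound (11-point 3-fold dilution, top 100 nM, 2% DMSO), then 15 μM quenched FXI Arg146-based peptide added; Tris pH 7.5, CaCl2, BSA, CHAPS. Fluorescence 485/520 nm read kinetically every 5 min over 30 min at RT; IC50 by 4-parameter fit.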

human plasma kallikrein = human plasma kallikrein (Homo sapiens (Human), UniProt P03952); assay: Kallikrein inhibition assay (FLINT) utilizing a quenched AMC peptide substrate; type: biochemical; conditions: 30 min preincubation, read-out: Kallikrein Kin Inh IC50
Outline: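 Fluorogenic Z-Gly-Pro-Arg-AMC cleavage (50 μM substrate, 2 nM kallikrein, Tris pH 7.5, CaCl2, BSA, CHAPS, 2% DMSO) read kinetically at 340/440 nm for 30 min after 30-min compound pre-incubation. Compounds in 11-point 3-fold series from 1 μM; percent inhibition fitted to four-parameter equation for IC50.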

[1] = kinetic reads over 30 min, 5Fam-KLTRAETV-K5Tamra substrate 15 μM
[2] = kinetic reads over 30 min, Z-Gly-Pro-Arg-AMC substrate 50 μM
[3] = kinetic reads over 30 min, 5Fam-[…]-K5Tamra substrate 15 μM

Factor XIa, sequence (P03951 388-625): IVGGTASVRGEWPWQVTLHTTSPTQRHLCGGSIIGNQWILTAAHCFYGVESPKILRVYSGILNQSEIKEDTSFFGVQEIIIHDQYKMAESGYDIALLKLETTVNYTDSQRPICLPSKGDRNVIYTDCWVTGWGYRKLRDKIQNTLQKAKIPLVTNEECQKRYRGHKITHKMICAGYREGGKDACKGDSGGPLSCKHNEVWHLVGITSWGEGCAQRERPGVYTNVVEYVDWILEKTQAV
Factor XIa, sequence (P03951 19-387 partner): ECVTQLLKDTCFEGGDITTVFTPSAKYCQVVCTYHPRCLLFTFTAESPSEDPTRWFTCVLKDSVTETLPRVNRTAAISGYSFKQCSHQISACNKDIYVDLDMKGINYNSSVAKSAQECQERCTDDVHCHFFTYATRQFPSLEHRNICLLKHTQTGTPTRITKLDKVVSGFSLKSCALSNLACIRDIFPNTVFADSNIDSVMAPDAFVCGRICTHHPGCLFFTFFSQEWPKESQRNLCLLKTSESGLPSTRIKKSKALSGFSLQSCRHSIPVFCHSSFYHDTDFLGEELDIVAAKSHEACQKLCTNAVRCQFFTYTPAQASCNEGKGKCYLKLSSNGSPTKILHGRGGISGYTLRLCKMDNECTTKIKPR
human plasma kallikrein, sequence (P03952 391-638): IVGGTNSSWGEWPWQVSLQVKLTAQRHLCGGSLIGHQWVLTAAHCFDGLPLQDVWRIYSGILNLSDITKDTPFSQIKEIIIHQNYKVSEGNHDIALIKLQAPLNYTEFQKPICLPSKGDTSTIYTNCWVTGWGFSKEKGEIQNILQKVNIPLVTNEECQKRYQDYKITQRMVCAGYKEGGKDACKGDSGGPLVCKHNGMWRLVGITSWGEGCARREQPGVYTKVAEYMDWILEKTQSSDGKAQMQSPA
human plasma kallikrein, sequence (P03952 20-390 partner): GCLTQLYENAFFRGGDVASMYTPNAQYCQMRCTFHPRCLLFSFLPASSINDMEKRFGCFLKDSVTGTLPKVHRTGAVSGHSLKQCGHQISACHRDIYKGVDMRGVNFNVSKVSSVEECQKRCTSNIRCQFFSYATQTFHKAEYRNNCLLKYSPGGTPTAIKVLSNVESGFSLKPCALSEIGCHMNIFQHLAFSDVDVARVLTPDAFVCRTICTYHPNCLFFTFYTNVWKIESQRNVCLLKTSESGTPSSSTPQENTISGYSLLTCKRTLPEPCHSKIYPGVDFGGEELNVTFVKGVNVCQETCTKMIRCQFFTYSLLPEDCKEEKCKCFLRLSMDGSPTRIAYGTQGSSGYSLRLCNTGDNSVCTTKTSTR

IC50 (Factor XIa; [1]) [µM] | IC50 (human plasma kallikrein; [2]) [µM] | IC50 (Factor XIa; μM, kinetic reads) [µM] | IC50 (human plasma kallikrein; μM, kinetic reads) [µM] | IC50 (Factor XIa; [3]) [µM] | SMILES
0.0311 | 0.0348 |  |  |  | CN(C)c1ccc(-c2cnc([C@@H]3CCC4CC(c5c(-n6cnnn6)ccc(Cl)c5F)=CC(=O)N43)[nH]2)c(F)n1 (stereo partly drawn) [Example 315, (3S)-7-(3-Chloro-2-fluoro-6-(1H-tetrazol-1-yl)phenyl)-3-(5-(6-(dimethylamino)-2-fluoropyridin-3-yl)-1H-imidazol-2-yl)-2,3,8,8a-tetrahydroindolizin-5(1H)-one]
 |  | 7.4 | > 10 |  | Nc1ccc(-c2cnc([C@H]3CC[C@@H]4CC(c5c(-n6cnnn6)ccc(Cl)c5F)=CC(=O)N43)[nH]2)c(F)n1 [Example 356, (3R,8aR)-3-(5-(6-Amino-2-fluoropyridin-3-yl)-1H-imidazol-2-yl)-7-(3-chloro-2-fluoro-6-(1H-tetrazol-1-yl)phenyl)-2,3,8,8a-tetrahydroindolizin-5(1H)-one]
0.0007 | 0.0156 |  |  |  | Cn1ncc(NC(=O)C2CC2)c1-c1c[nH]c([C@@H]2CC[C@H]3CC(c4c(-n5cnnn5)ccc(Cl)c4F)=CC(=O)N32)n1 [Example 247, N-[5-[2-[(3S,8aS)-7-[3-Chloro-2-fluoro-6-(tetrazol-1-yl)phenyl]-5-oxo-2,3,8,8a-tetrahydro-1H-indolizin-3-yl]-1H-imidazol-4-yl]-1-methyl-pyrazol-4-yl]cyclopropanecarboxamide]
0.0019 | 0.0013 |  |  |  | O=C1C=C(c2c(-n3cnnn3)ccc(Cl)c2F)CC2CC[C@@H](c3ncc(-c4ccc5[nH]c(=O)oc5c4)[nH]3)N12 (stereo partly drawn) [Example 309, 6-(2-((3S)-7-(3-Chloro-2-fluoro-6-(1H-tetrazol-1-yl)phenyl)-5-oxo-1,2,3,5,8,8a-hexahydroindolizin-3-yl)-1H-imidazol-4-yl)benzo[d]oxazol-2(3H)-one]
> 0.1 |  |  | > 1 |  | Cn1cnc(-c2c[nH]c([C@@H]3CC[C@H]4CC(c5c(-n6cnnn6)ccc(Cl)c5F)=CC(=O)N43)n2)n1 [Example 274, (3S,8aS)-7-(3-Chloro-2-fluoro-6-(1H-tetrazol-1-yl)phenyl)-3-(4-(1-methyl-1H-1,2,4-triazol-3-yl)-1H-imidazol-2-yl)-2,3,8,8a-tetrahydroindolizin-5(1H)-one]
0.0917 | 0.867 |  |  |  | O=C1C=C(c2c(-n3cnnn3)ccc(Cl)c2F)C[C@H]2CCC(c3ncc(-c4n[nH]cc4Cl)[nH]3)N12 (stereo partly drawn) [Example 4, (8aR)-7-[3-Chloro-2-fluoro-6-(tetrazol-1-yl)phenyl]-3-[5-(4-chloro-1H-pyrazol-3-yl)-1H-imidazol-2-yl]-2,3,8,8a-tetrahydro-1H-indolizin-5-one]
 | 0.0019 |  |  | 0.0005 | O=C1Nc2ccc(-c3cnc([C@@H]4CC[C@H]5CC(c6c(-n7cnnn7)ccc(Cl)c6F)=CC(=O)N54)[nH]3)cc2CO1 (relative stereo) [Example 278]
0.0009 | 0.0011 |  |  |  | COc1ccc(-c2c[nH]c([C@@H]3CC[C@@H]4CC(c5c(-n6cnnn6)ccc(Cl)c5F)=CC(=O)N43)n2)c(NC(=O)C2CC2)c1 [Example 266, N-(2-(2-((3S,8aR)-7-(3-Chloro-2-fluoro-6-(1H-tetrazol-1-yl)phenyl)-5-oxo-1,2,3,5,8,8a-hexahydroindolizin-3-yl)-1H-imidazol-4-yl)-5-methoxyphenyl)cyclopropanecarboxamide]
0.0036 | 0.0061 |  |  |  | O=C1C=C(c2c(-n3cnnn3)ccc(Cl)c2F)C[C@@H]2CC[C@@H](c3nc(Cl)c(-c4ccnc([C@H](O)C(F)(F)F)c4)[nH]3)N12 (single isomer, unassigned) [Example 172, (3*S,8a*S)-7-(3-chloro-2-fluoro-6-(1H-tetrazol-1-yl)phenyl)-3-(4-chloro-5-(2-((*S)-2,2,2-trifluoro-1-hydroxyethyl)pyridin-4-yl)-1H-imidazol-2-yl)-2,3,8,8a-tetrahydroindolizin-5(1H)-one]
0.0037 | 0.006 |  |  |  | O=C1C=C(c2c(-n3cnnn3)ccc(Cl)c2F)C[C@H]2CC[C@H](c3nc(F)c(-c4ccnc(-n5cncn5)c4F)[nH]3)N12 (single isomer, unassigned) [Example 92, 7-[3-Chloro-2-fluoro-6-(tetrazol-1-yl)phenyl]-3-[4-fluoro-5-[3-fluoro-2-(1,2,4-triazol-1-yl)-4-pyridyl]-1H-imidazol-2-yl]-2,3,8,8a-tetrahydro-1H-indolizin-5-one]
0.061 | 0.33 |  |  |  | CC(=O)N[C@H](C)c1ccc(-c2cnc([C@@H]3CCC4CC(c5c(-n6cnnn6)ccc(Cl)c5F)=CC(=O)N43)[nH]2)cc1 (stereo partly drawn) [Example 16, N-[(1R)-1-[4-[2-[(3S)-7-[3-Chloro-2-fluoro-6-(tetrazol-1-yl)phenyl]-5-oxo-2,3,8,8a-tetrahydro-1H-indolizin-3-yl]-1H-imidazol-5-yl]phenyl]ethyl]acetamide]
0.0083 | 0.0644 |  |  |  | O=C1C=C(c2c(-n3cnnn3)ccc(Cl)c2F)C[C@H]2CC[C@H](c3ncc(-c4ccnc(C5(O)CC5)c4F)[nH]3)N12 (single isomer, unassigned) [Example 116, (3*R,8aR)-7-(3-chloro-2-fluoro-6-(1H-tetrazol-1-yl)phenyl)-3-(5-(3-fluoro-2-(1-hydroxycyclopropyl)pyridin-4-yl)-1H-imidazol-2-yl-4-d)-2,3,8,8a-tetrahydroindolizin-5(1H)-one]
0.0032 | 0.0095 |  |  |  | COC(=O)c1nccc(-c2cnc([C@@H]3CC[C@@H]4CC(c5c(-n6cnnn6)ccc(Cl)c5F)=CC(=O)N43)[nH]2)c1F [Example 52, Methyl 4 [2-[(3S,8aR)-7-[3-chloro-2-fluoro-6-(tetrazol-1-yl)phenyl]-5-oxo-2,3,8,8a-tetrahydro-1H-indolizin-3-yl]-1H-imidazol-5-yl]-3-fluoro-pyridine-2-carboxylate]
0.0797 |  |  | 1.2 |  | CS(=O)(=O)Nc1ccccc1-c1c[nH]c([C@@H]2CCC3CC(c4c(-n5cnnn5)ccc(Cl)c4F)=CC(=O)N32)n1 (stereo partly drawn) [Example 293, N-(2-(2-((3S)-7-(3-Chloro-2-fluoro-6-(1H-tetrazol-1-yl)phenyl)-5-oxo-1,2,3,5,8,8a-hexahydroindolizin-3-yl)-1H-imidazol-4-yl)phenyl)methanesulfonamide]
0.0002 | 0.0005 |  |  |  | O=C(Nc1ccccc1-c1c[nH]c([C@@H]2CC[C@@H]3CC(c4c(-n5cnnn5)ccc(Cl)c4F)=CC(=O)N32)n1)C1CC1 [Example 369, N-(2-(2-((3S,8aR)-7-(3-chloro-2-fluoro-6-(1H-tetrazol-1-yl)phenyl)-5-oxo-1,2,3,5,8,8a-hexahydroindolizin-3-yl)-1H-imidazol-4-yl)phenyl)cyclopropanecarboxamide]
 | 0.0479 |  |  | 0.0093 | CC1(C)C[C@@H](c2ncc(-c3ccc(N)nc3F)[nH]2)N2C(=O)C=C(c3c(-n4cnnn4)ccc(Cl)c3F)C[C@@H]21 (relative stereo) [Example 336, (3S,8aR)-3-(5-(6-Amino-2-fluoropyridin-3-yl)-1H-imidazol-2-yl)-7-(3-chloro-2-fluoro-6-(1H-tetrazol-1-yl)phenyl)-1,1-dimethyl-2,3,8,8a-tetrahydroindolizin-5(1H)-one]
0.005 | 0.0255 |  |  |  | COC(=O)Nc1ccc(-c2cnc([C@@H]3CC[C@@H]4CC(c5c(-n6cnnn6)ccc(Cl)c5F)=CC(=O)N43)[nH]2)nc1 [Example 316, Methyl (6-(2-((3S,8aR)-7-(3-chloro-2-fluoro-6-(1H-tetrazol-1-yl)phenyl)-5-oxo-1,2,3,5,8,8a-hexahydroindolizin-3-yl)-1H-imidazol-5-yl)pyridin-3-yl)carbamate]
 | 0.0114 |  |  | 0.0313 | Nc1ccnn1-c1cc(-c2cnc([C@H]3CC[C@@H]4CC(c5c(-n6cnnn6)ccc(Cl)c5F)=CC(=O)N43)[nH]2)ccn1 (single isomer, unassigned) [Example 49, (3R*,8aR)-3-(5-(2-(5-amino-1H-pyrazol-1-yl)pyridin-4-yl)-1H-imidazol-2-yl)-7-(3-chloro-2-fluoro-6-(1H-tetrazol-1-yl)phenyl)-2,3,8,8a-tetrahydroindolizin-5(1H)-one]
0.0744 | 0.092 |  |  |  | O=C1C=C(c2c(-n3cnnn3)ccc(Cl)c2F)C[C@H]2CC[C@@H](c3ncc(-c4cnc5[nH]ccc5c4)[nH]3)N12 [Example 24, (3S,8aR)-3-(5-(1H-pyrrolo[2,3-b]pyridin-5-yl)-1H-imidazol-2-yl)-7-(3-chloro-2-fluoro-6-(1H-tetrazol-1-yl)phenyl)-2,3,8,8a-tetrahydroindolizin-5(1H)-one]
0.0029 | 0.0038 |  |  |  | O=C1C=C(c2c(-n3cnnn3)ccc(Cl)c2F)C[C@H]2CC[C@@H](c3ncc(-c4ccnc(N5CCC5)c4F)[nH]3)N12 (single isomer, unassigned) [Example 111, (3*S,8aR)-3-(5-(2-(azetidin-1-yl)-3-fluoropyridin-4-yl)-1H-imidazol-2-yl)-7-(3-chloro-2-fluoro-6-(1H-tetrazol-1-yl)phenyl)-2,3,8,8a-tetrahydroindolizin-5(1H)-one]
0.0036 | 0.0268 |  |  |  | O=C1C=C(c2c(-n3cc(C(F)(F)F)nn3)ccc(Cl)c2F)C[C@H]2CC[C@@H](c3ncc(-c4c[nH]c5ccncc45)[nH]3)N12 [Example 385, (3S,8aR)-3-(5-(1H-pyrrolo[3,2-c]pyridin-3-yl)-1H-imidazol-2-yl)-7-(3-chloro-2-fluoro-6-(4-(trifluoromethyl)-1H-1,2,3-triazol-1-yl)phenyl)-2,3,8,8a-tetrahydroindolizin-5(1H)-one]
